Measurements published in patent US20170151215A1, “USE OF ROTIGOTINE FOR TREATING THE RESTLESS LEG SYNDROME” (UCB PHARMA GMBH, priority 2002, published 2017).

Tests used:
[1] = tested on: Restless Leg Syndrome (RLS); details: cited from earlier work; for effectiveness in RLS / side effects: short-term therapy studies; for side effects: usually in the beginning and as a function of the dosage
[2] = tested on: patients suffering from moderate to very severe idiopathic Restless Leg Syndrome; assay: placebo-controlled, double-blind, randomized clinical test of rotigotine TTS in Restless Leg Syndrome patients; assay type: in vivo, human; details: for Reduction of the average IRLSSG Value as compared to Placebo Treatment by Day 8: 8 days treatment
Text: The rotigotine TTS produced per one of the above implementation examples was investigated in placebo-controlled, double-blind, randomized clinical tests at several centers, covering in a study with triple-branched parallel groups 63 patients who were suffering from moderate to very severe idiopathic Restless Leg Syndrome conditions.
The average age of the patients was 58.3 years. Randomization in the three treatment groups in terms of gender, age and severity of prior illnesses was reasonably balanced.
Over a treatment period of eight (8) days the patients of one group were treated with 5 cm^2 TTS and the patients of another group were treated with 10 cm^2 TTS. For a comparison the patients in the placebo group were treated with a placebo TTS. Within 24 hours, each of the above-mentioned drug-containing TTS's released 2.25 mg and, respectively, 4.5 mg rotigotine to the patient concerned.
As a result of the prespecified primary effectiveness the activities of daily life and the motoricity had changed, based on the generally accepted rating scale of the International Restless Leg Syndrome Study Group (IRLSSG), from the initial value to that in the concluding treatment evaluation (8th day).
On the basis of 10 questions, the IRLSSG measures and rates the following clinical parameters in Restless Leg patients:
The overall IRLSSG rating is derived from the individual values as follows:
First, an initial starting value is determined for each patient participating in the study. This is done by adding up the individual IRLSSG parameter values as of Day 0, i.e. before the treatment. Over the course of the treatment the IRLSSG values are compared with the starting value and any changes from that starting value are recorded. Finally, the average improvement of the IRLSSG value as of Day 8 over the starting value is determined by calculating the average of all test subjects. The resulting value is called CAS—(complete analysis set) randomized average change from the starting value of the overall IRLSSG rating.
Patients suffering from the Restless Leg Syndrome have been known to display a relatively strong response to placebos, meaning that even when treated with placebos these Restless Leg Syndrome patients show a certain improvement of their IRLSSG values. It is therefore important to compare any effect of the drug treatment with the degree of the IRLSSG improvement obtained through placebo treatment over the same time period. Thus, the final assessment of the improvement takes into account the effect of a placebo treatment during the same time period.

For N[C@@H](Cc1ccc(O)c(O)c1)C(=O)O [L-DOPA, levodopa], the “effect on the disorder (RLS)” value ([1]; long-term therapy) is listed as “clear mitigation of the disorder”.
With CCCN(CCc1cccs1)[C@H]1CCc2c(O)cccc2C1 [Rotigotine, (-)-5,6,7,8-tetrahydro-6-[propyl [2-(2-thienyl)ethyl]amino]-1-naphtol] the “Reduction of the average IRLSSG Value as compared to Placebo Treatment by Day 8” value ([2]; 5 cm^2 TTS, 2.25 mg rotigotine per 24 hours, p (one side) 0.09) was 3.6, the “Reduction of the average IRLSSG Value as compared to Placebo Treatment by Day 8” value ([2]; 10 cm^2 TTS, 4.5 mg rotigotine per 24 hours, p (one side) 0.04) was 6.3 and the “skin reactions at the point of application” value ([2]; administered via the TTS) was “generally very minor”. For the same compound, the tolerability ([2]; administered via the TTS) was “generally well tolerated”, the tolerability ([2]; administered via the TTS, listed as rotigotine) was “well tolerated and safe” and the “subjective symptoms (tingling, cramps and pain in the legs, restlessness during the night, difficulties falling or remaining asleep)” value ([2]; end of the 8-day treatment, both patient groups (5 cm^2 and 10 cm^2 TTS)) was “either disappeared or diminished to a tolerable minimum”. For the same compound, the “daytime weariness, nausea, dizziness, vomiting, insomnia caused by the treatment” value ([2]; patient reports, as a function of the dose administered) was “did not or only to a very minimal extent cause” and the “clinical improvement in patients in a moderate to severe stage of Restless Leg Syndrome” value ([2]; transdermally administered once daily) was “distinct clinical improvement”.
For CC(C)C[C@H]1C(=O)N2CCC[C@H]2[C@]2(O)O[C@](NC(=O)[C@@H]3C[C@@H]4c5cccc6[nH]cc(c56)C[C@H]4N(C)C3)(C(C)C)C(=O)N12 [alpha dihydroergocryptine], the “effectiveness in RLS” value [1] is given as “effective” and the side effects [1] is given as “nausea, vomiting, dizziness, hypotension, constipation or insomnia”.
In the case of CC(C)C[C@H]1C(=O)N2CCC[C@H]2[C@]2(O)O[C@](NC(=O)[C@@H]3C=C4c5cccc6[nH]c(Br)c(c56)C[C@H]4N(C)C3)(C(C)C)C(=O)N12 [bromocriptine], the side effects [1] is given as “nausea, vomiting, dizziness, hypotension, constipation or insomnia”.
In the case of C=CCN1C[C@H](C(=O)N(CCCN(C)C)C(=O)NCC)C[C@@H]2c3cccc4[nH]cc(c34)C[C@H]21 [cabergolin], the “effectiveness in RLS” value [1] is given as “effective” and the side effects [1] is given as “nausea, vomiting, dizziness, hypotension, constipation or insomnia”.
In the case of Clc1cccc(Cl)c1NC1=NCCN1 [clonidine, 2-(2,6-dichloroanilino)-4,5-dihydroimidazol], the “frequency of waking up” value ([1]; treatment of RLS) is listed as “no effect”, the “periodic leg movement during sleep (PLMS)” value ([1]; treatment of RLS) is listed as “no effect” and the quality of sleep ([1]; treatment of RLS) is listed as “no effect”. The soporiferous latency ([1]; treatment of RLS) was “reduced”.
For CCN(CC)C(=O)N[C@H]1C=C2c3cccc4[nH]cc(c34)C[C@H]2N(C)C1 [lisuride], the “effectiveness in RLS” value [1] is given as “effective” and the side effects [1] is given as “nausea, vomiting, dizziness, hypotension, constipation or insomnia”.
In the case of CCCN1C[C@H](CSC)C[C@@H]2c3cccc4[nH]cc(c34)C[C@H]21 [pergolide], the “effectiveness in RLS” value [1] is given as “effective” and the side effects [1] is given as “nausea, vomiting, dizziness, hypotension, constipation or insomnia”.
In the case of CCCN[C@H]1CCc2nc(N)sc2C1 [pramipexol], the serious side effect ([1]; in vivo) is given as “Attacks of drowsiness”, the “effectiveness in RLS” value [1] is given as “effective” and the side effects [1] is given as “nausea, vomiting, dizziness, hypotension, constipation or insomnia”.
In the case of CCCN(CCC)CCc1cccc2c1CC(=O)N2 [ropinirol], the “effectiveness in RLS” value [1] is listed as “effective” and the side effects [1] is listed as “nausea, vomiting, dizziness, hypotension, constipation or insomnia”.
